The results in this text go back to EP1724268A1, “COMPOUND HAVING TGF-BETA INHIBITORY ACTIVITY AND PHARMACEUTICAL COMPOSITION CONTAINING SAME” (KIRIN BEER KABUSHIKI KAISHA, priority 2004, dated 2005).

Like-named read-outs stand apart in the source and are kept apart here.

This assay deals with TGFβ signal. In words: TGFβ signal inhibitory activity, (SBE)4-Luc reporter in A549 cells (Test Examples 1A and 1B). The following applies: Homo sapiens. The format is cell-based, human. In outline: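 Stable A549 line carrying (SBE)4-Luc Smad3-binding reporter treated with compound plus TGFβ-1 (2 ng/ml) for 4 hr; luciferase read by chemiluminescence. Percent inhibition relative to TGFβ-only and untreated cells, tested at 3 µM and 10 µM, some also at 1 µM.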

Where [1] appears, read: A549, 3 µM, compounds of Reference Examples (Test Example 1B), read-out: TGFβ inhibition rate, %.
The mark [2] stands for this setting: A549, 10 µM, compounds of Reference Examples (Test Example 1B), read-out: TGFβ inhibition rate, %.
[3] abbreviates: A549, test compound 3 µM, TGFβ-1 2 ng/ml, 4 hr, Table 1A, read-out: TGFβ inhibition rate, %.
The mark [4] stands for this setting: A549, test compound 10 µM, TGFβ-1 2 ng/ml, 4 hr, Table 1A, read-out: TGFβ inhibition rate, %.
Where [5] appears, read: A549, test compound 3 µM, Reference Examples, Table 1B, read-out: TGFβ inhibition rate, %.
Where [6] appears, read: A549, test compound 10 µM, Reference Examples, Table 1B, read-out: TGFβ inhibition rate, %.

As a reminder, the inhibition is the drop in the measured response relative to a control, in per cent.

For the molecule `COc1cc2nccc(Oc3cc(C)c(C)nc3-c3ccccc3)c2cc1OC` [r268], the inhibition at 3 µM under setting [1] came to 100%. In addition, the inhibition at 10 µM under setting [2] worked out at 100%. As for `COc1cc2nccc(Oc3ccc(C)nc3-c3cccc(Cl)c3)c2cc1OC` [Compound r241], the inhibition at 3 µM under setting [1] stood at 96%. Further, the inhibition at 10 µM under setting [2] came out at 100%. For `COc1cc2nccc(Oc3ccc(C)nc3-c3ccc(C(C)=O)cc3)c2cc1OC` [Compound r246], in that order: 64% and 93%. Take `COc1cc2nccc(Oc3cc4cccnc4nc3-c3ccccc3)c2cc1OC(C)C` [Compound 118, 3-(6-Isopropoxy-7-methoxy-quinolin-4-yloxy)-2-phenyl-[1,8]naphthyridine]: the inhibition at 3 µM under setting [3] was 100%. Further, the inhibition at 10 µM under setting [4] was found to be 100%. Take `COc1ccc(Oc2ccnc3cc(OC)c(OC)cc23)c(C(C)=O)c1` [r177]: the inhibition at 3 µM (A549, read-out: TGFβ inhibition rate, %) worked out at 94%. In the case of `COc1cc2c(Oc3cc4ccccc4nc3C)ccnc2cc1OCC1CO1` (stereo not shown) [Compound r383, 6-Methoxy-4-(2-methyl-quinolin-3-yloxy)-7-oxilanyl methoxy-quinoline], the inhibition at 3 µM under setting [1] came to 97%. Also, the inhibition at 10 µM under setting [2] is 100%. The matching figures for `COc1cc2c(Oc3ccc(C)nc3-c3nccs3)ccnc2cc1O` [Compound r329]: 100% and 100%.

As for `COc1cc2nccc(Oc3c(OC)cccc3C(C)=O)c2cc1OC` [Compound r30], the inhibition at 3 µM under setting [5] was determined as 0%. For the same molecule, under setting [6], the inhibition at 10 µM was determined as 61%. Turning to `COc1cc2nccc(Oc3c(Br)cc(Br)cc3C(=O)Nc3ccc(Br)cc3)c2cc1OC` [Compound r113], under setting [5], the inhibition at 3 µM worked out at 0%. For the same molecule, the inhibition at 10 µM under setting [6] is 96%. With `CCC(=O)c1cccc(F)c1Oc1ccnc2cc(OC)c(OC)cc12` [r43], under setting [5], the inhibition at 3 µM worked out at 0%. In addition, under setting [6], the inhibition at 10 µM is 66%.

Consider `COc1cc2nccc(Oc3cc(C)c(C)nc3-c3ccccn3)c2cc1F` [Compound 110, 3-(6-Fluoro-7-methoxy-quinolin-4-yloxy)-5,6-dimethyl-[2,2']bipyridine], for which the inhibition at 3 µM under setting [3] was determined as 100%. Moreover, the inhibition at 10 µM under setting [4] was found to be 100%.

With `COc1cc2nccc(Oc3ccc(C)nc3-c3cccc(C(C)=O)c3)c2cc1OC` [Compound r232], under setting [1], the inhibition at 3 µM worked out at 66%. Further, the inhibition at 10 µM under setting [2] came out at 79%. The matching figures for `COc1cc2nccc(Oc3ccc(C)nc3-c3cccc(F)c3)c2cc1OC` [Compound r240]: 100% and 100%. With `CCCOC(=O)c1ccccc1Oc1ccnc2cc(OC)c(OC)cc12` [Compound r94], the inhibition at 3 µM under setting [5] amounted to 39%. Also, the inhibition at 10 µM under setting [6] was 97%. Regarding `COc1cc2c(Oc3cc4ccccc4nc3C(C)=O)ccnc2cc1OCCCO` [Compound r456], the inhibition at 3 µM under setting [1] was determined as 99%. Also, the inhibition at 10 µM under setting [2] stood at 100%. The matching figures for `COc1cc2nccc(Oc3ccc(C)nc3-c3cc(F)cc(F)c3)c2cc1OC` [Compound r254]: 100% and 100%.

As for `COc1cc2nccc(Oc3cncc(Cl)c3)c2cc1OC` [r208], the inhibition at 3 µM under setting [1] is 18%. Moreover, the inhibition at 10 µM under setting [2] amounted to 73%. For `COc1cc2nccc(Oc3cc4ccccc4nc3-c3ccc(F)cc3)c2cc1OC` [r285], in that order: 65% and 100%. The matching figures for `COc1cc2c(Oc3cc(C)c(C)nc3-c3cccc(C)n3)ccnc2cc1OCC(O)CO` (stereo not shown) [Compound r449]: 74% and 98%. For `CCC(O)c1cc(OC)ccc1Oc1ccnc2cc(OC)c(OC)cc12` (stereo not shown) [Compound r11], the inhibition at 3 µM under setting [5] was determined as 28%. Moreover, the inhibition at 10 µM under setting [6] is 66%. For `COc1cc2c(Oc3cc(C)c(C)nc3-c3cccnc3)ccnc2cc1OCC(O)CO` (stereo not shown) [Compound r349], under setting [1], the inhibition at 3 µM came out at 96%.

For `Cc1cc(Oc2ccnc3ccc(-c4ccsc4)cc23)c(-c2ccccn2)nc1C` [Compound 163, 5,6-Dimethyl-3-(6-thiophen-3-yl-quinolin-4-yloxy)-[2,2']bipyridine], the inhibition at 3 µM under setting [3] stood at 92%. Also, the inhibition at 10 µM under setting [4] was 100%. Consider `COc1cc2c(Oc3cc4ccccc4nc3C)ccnc2cc1OCCN1C(=O)c2ccccc2C1=O` [Compound r367], for which the inhibition at 3 µM under setting [1] is 95%. For the same molecule, under setting [2], the inhibition at 10 µM stood at 98%.

With `Cc1ccc(-c2nc(C)c(C)cc2Oc2ccnc3cc(Cl)ccc23)nc1` [Compound r432], the inhibition at 3 µM under setting [1] was 99%. Also, the inhibition at 10 µM under setting [2] is 100%. Turning to `Cc1cc(Oc2ccnc3ccccc23)c(-c2ncccn2)nc1C` [Compound 49, 4-(5,6-Dimethyl-2-pyrimidin-2-yl-pyridin-3-yloxy)-quinoline], under setting [3], the inhibition at 3 µM is 97%. Further, the inhibition at 10 µM under setting [4] was 100%. The matching figures for `Brc1ccc2ncnc(Oc3cc4cccnc4nc3-c3ccccc3)c2c1` [Compound 69, 6-Bromo-4-(2-phenyl-[1,8]naphthyridin-3-yloxy)-quinazoline]: 52% and 94%. On to `COc1cc2c(Oc3cc4ccccc4nc3C)ccnc2cc1OCCN1CCCCC1` [Compound r358], for which the inhibition at 3 µM under setting [1] was found to be 100%. In addition, the inhibition at 10 µM under setting [2] stood at 100%. For `COc1cc2nccc(Oc3ccc(C)cc3-c3ccccn3)c2cc1OC` [r167], the inhibition at 3 µM under setting [1] stood at 98%. Under setting [2], the inhibition at 10 µM amounted to 100%. With `Cc1cc(Oc2ccnc3cc(-c4ccsc4)ccc23)c(-c2ccccn2)nc1C` [Compound 171, 5,6-Dimethyl-3-(7-thioahen-3-yl-quinolin-4-yloxy)-[2,2']bipyridine], the inhibition at 3 µM under setting [3] amounted to 100%. For the same molecule, under setting [4], the inhibition at 10 µM amounted to 100%. Regarding `COc1cc2nccc(Oc3ccc(F)nc3)c2cc1OC` [r205], the inhibition at 3 µM under setting [1] came to 26%. Also, under setting [2], the inhibition at 10 µM came to 57%. For `COc1cc2nccc(Oc3ccc4ncsc4c3I)c2cc1OC` [r294], in that order: 53% and 77%. Turning to `COc1cc2nccc(Oc3cc4cccnc4nc3-c3cccnc3)c2cc1OC` [Compound 88, 3-(6,7-Dimethoxy-quinolin-4-yloxy)-2-pyridin-3-yl-[1,8]naphthyridine], the inhibition at 3 µM under setting [3] was found to be 90%. Further, the inhibition at 10 µM under setting [4] was 100%.

Take `CCOC(=O)c1cc(F)ccc1Oc1ccnc2cc(OC)c(OC)cc12` [Compound r83]: the inhibition at 3 µM under setting [5] was 41%. For the same molecule, the inhibition at 10 µM under setting [6] amounted to 81%.

On to `Cc1cc(Oc2ccnc3ccc(Br)cc23)c(-c2ccccn2)nc1C` [Compound 2, 3-(6-Bromo-quinolin-4-yloxy)-5,6-dimethyl-[2,2']bipyridine], for which, under setting [3], the inhibition at 3 µM worked out at 100%. The inhibition at 10 µM under setting [4] is 100%. Consider `COc1cc2c(Oc3cc(C)c(C)nc3-c3ccc(C)cn3)ccnc2cc1OCCCl` [Compound r466], for which the inhibition at 3 µM under setting [1] was 99%. Besides, under setting [2], the inhibition at 10 µM is 100%.

On to `COc1cc2c(Oc3cc(C)c(C)nc3-c3ccccn3)ccnc2cc1OCCCO` [Compound r340], for which the inhibition at 3 µM under setting [1] was 99%.

Regarding `COc1cc2c(Oc3cc4ccccc4nc3C)ccnc2cc1O` [Compound r352, 6-Methoxy-4-(2-methyl-quinolin-3-yloxy)-quinolin-7-ol], the inhibition at 3 µM under setting [1] was determined as 14%. The inhibition at 10 µM under setting [2] worked out at 68%.

On to `COc1cc2nccc(Oc3ccc4[nH]ccc4c3)c2cc1OC` [r293], for which the inhibition at 3 µM under setting [1] was determined as 65%. Moreover, the inhibition at 10 µM under setting [2] came to 95%.

Consider `COc1ccc(C(C)=O)c(Oc2ccnc3cc(OC)c(OC)cc23)c1` [r31], for which the inhibition at 3 µM under setting [5] came to 49%. Under setting [6], the inhibition at 10 µM was 98%. The matching figures for `COc1cc2c(Oc3ccc(C)cc3C(=O)c3ccccc3)ccnc2cc1OCCCCN1CCC(N2CCCC2)CC1` [Compound r145]: 87% and 100%. In the case of `COc1cc2c(Oc3cc(C)c(C)nc3-c3ccccn3)ccnc2cc1C` [Compound 119, 3-(6-Methoxy-7-methyl-quinolin-4-yloxy)-5,6-dimethyl-[2,2']bipyridine], the inhibition at 3 µM under setting [3] was 100%. Under setting [4], the inhibition at 10 µM came to 100%. On to `COc1cc2nccc(Oc3ccc4c(c3)COC(=O)N4)c2cc1OC` [Compound r23, 6-[(6,7-Dimethoxy-4-quinolyl)oxy]-1,4-dihydro-2H-3,1-benzoxazin-2-one], for which the inhibition at 3 µM under setting [5] was determined as 56%. For the same molecule, under setting [6], the inhibition at 10 µM was determined as 91%. On to `COc1cc2nccc(Oc3ccc(C)nc3-c3ncccn3)c2cc1OC` [Compound 188, 4-(6-Methyl-2-pyrimidin-2-yl-pyridin-3-yloxy)-6,7-dimethoxy-quinoline], for which, under setting [3], the inhibition at 3 µM is 100%. The inhibition at 10 µM under setting [4] stood at 100%.

For `COc1cc2nccc(Oc3cc4ccccc4nc3C)c2cc1OCC(O)CO` (stereo not shown) [r417], the inhibition at 3 µM under setting [1] worked out at 98%. Under setting [2], the inhibition at 10 µM worked out at 100%. For `COc1cc2nccc(Oc3ccc(C)nc3C(O)c3ccccc3)c2cc1OC` (stereo not shown) [r217], in that order: 91% and 100%. Turning to `COc1cc2nccc(Oc3ccc(C)cc3CN3CCCCC3)c2cc1OC` [Compound r6, 6,7-Dimethoxy-4-[4-methyl-2-(piperidinomethyl)phenoxy]quinoline], the inhibition at 3 µM under setting [5] turned out to be 30%. Moreover, under setting [6], the inhibition at 10 µM turned out to be 72%. As to `COc1cc2nccc(Oc3cc4ccccc4nc3-c3ccncc3)c2cc1OC` [r289], the inhibition at 3 µM under setting [1] was found to be 80%. The inhibition at 10 µM under setting [2] stood at 99%.
